Laboratory results published in ChEMBL document CHEMBL5385913, “First-in-Class Dual EZH2-HSP90 Inhibitor Eliciting Striking Antiglioblastoma Activity In Vitro and In Vivo” (J Med Chem, 2024).
Active and inactive are the calls of the source. The rule behind the calls is not given here.

Legend:
GBM [1] = test: Downregulation of CDK1 level in TMZ-resistant patient-derived human GBM cells upto 5 uM incubated for 48 to 72 hrs by Western blot analysis; assay type: functional, cell-based; settings: time 48-72 hrs
GBM [2] = test: Induction of ROS production in patient-derived human GBM cells assessed as decrease in SOD1 level upto 10 uM measured after 48 hrs by Western blot analysis; assay type: functional, cell-based
GBM [3] = test: Downregulation of cyclin B level in TMZ-resistant patient-derived human GBM cells upto 5 uM incubated for 48 to 72 hrs by Western blot analysis; assay type: functional, cell-based; settings: time 48-72 hrs
GBM [4] = test: Effect on homologous recombination in TMZ-resistant patient-derived human GBM cells assessed as fold decrease in RMI1 gene expression at 2 uM (reference value: 3.44); assay type: functional
GBM [5] = test: Upregulation of CTNNB1 gene expression in TMZ-resistant patient-derived human GBM cells by KEGG analysis; assay type: functional, cell-based
GBM [6] = test: Downregulation of SRSF7 gene expression in TMZ-resistant patient-derived human GBM cells by KEGG analysis; assay type: functional, cell-based
[7] = Downregulation of HJURP level in TMZ-resistant patient-derived human GBM cells assessed as fold change at 2 uM by GlioVis analysis (reference value: 4.74); assay type: functional
GBM [8] = test: Upregulation of apoptosis-related gene expression in TMZ-resistant patient-derived human GBM cells; assay type: functional, cell-based
GBM [9] = test: Downregulation of RPS6 gene expression in TMZ-resistant patient-derived human GBM cells by KEGG analysis; assay type: functional, cell-based
GBM [10] = test: Effect on homologous recombination in TMZ-resistant patient-derived human GBM cells assessed as fold decrease in HDAC10 gene expression at 2 uM (reference value: 0.53); assay type: functional
[11] = Effect on processing DNA double-strand break in TMZ-resistant patient-derived human GBM cells assessed as fold decrease in DNA2 gene expression at 2 uM (reference value: 2.75); assay type: functional
[12] = Effect on processing DNA double-strand break in TMZ-resistant patient-derived human GBM cells assessed as fold decrease in RBBP8 gene expression at 2 uM (reference value: 4.92); assay type: functional
GBM [13] = test: Upregulation of ARF3 gene expression in TMZ-resistant patient-derived human GBM cells by KEGG analysis; assay type: functional, cell-based
GBM [14] = test: Induction of ROS production in TMZ-resistant patient-derived human GBM cells measured after 48 hrs by DHR staining based flow cytometry; assay type: functional, cell-based
GBM [15] = test: Effect on homologous recombination in TMZ-resistant patient-derived human GBM cells assessed as fold decrease in MND1 gene expression at 2 uM (reference value: 2.95); assay type: functional
GBM [16] = test: Downregulation of MCM3 gene expression in TMZ-resistant patient-derived human GBM cells by KEGG analysis; assay type: functional, cell-based
[17] = Downregulation of CENPK level in TMZ-resistant patient-derived human GBM cells assessed as fold change at 2 uM by GlioVis analysis (reference value: 3.71); assay type: functional
GBM [18] = test: Downregulation of RPL26 gene expression in TMZ-resistant patient-derived human GBM cells by KEGG analysis; assay type: functional, cell-based
GBM [19] = test: Downregulation of CENPF level in TMZ-resistant patient-derived human GBM cells upto 5 uM incubated for 48 to 72 hrs by Western blot analysis; assay type: functional, cell-based; settings: time 48-72 hrs
[20] = target: Histone-lysine N-methyltransferase EZH2 (Homo sapiens) (UniProt Q15910); test: Inhibition of EZH2-mediated H3K27 trimethylation in patient-derived human GBM cells upto 10 uM measured after 48 hrs by Western blot analysis; assay type: cell-based
GBM [21] = test: Downregulation of kinetochore-related gene expression in TMZ-resistant patient-derived human GBM cells; assay type: functional, cell-based
GBM [22] = test: Downregulation of RPS10 gene expression in TMZ-resistant patient-derived human GBM cells by KEGG analysis; assay type: functional, cell-based
GBM [23] = test: Effect on homologous recombination in TMZ-resistant patient-derived human GBM cells assessed as fold decrease in PSMC3IP gene expression at 2 uM (reference value: 2.71); assay type: functional
[24] = Downregulation of CENPP level in TMZ-resistant patient-derived human GBM cells assessed as fold change at 2 uM by GlioVis analysis (reference value: 2.18); assay type: functional
GBM [25] = test: Suppression of cell division in TMZ-resistant patient-derived human GBM cells by GSEA analysis; assay type: functional, cell-based
GBM [26] = test: Effect on homologous recombination in TMZ-resistant patient-derived human GBM cells assessed as fold decrease in EME1 gene expression at 2 uM (reference value: 2.94); assay type: functional
GBM [27] = test: Upregulation of EHD1 gene expression in TMZ-resistant patient-derived human GBM cells by KEGG analysis; assay type: functional, cell-based
GBM [28] = test: Downregulation of PCBP1 gene expression in TMZ-resistant patient-derived human GBM cells by KEGG analysis; assay type: functional, cell-based
[29] = Downregulation of CENPO level in TMZ-resistant patient-derived human GBM cells assessed as fold change at 2 uM by GlioVis analysis (reference value: 2.67); assay type: functional
GBM [30] = test: Inhibition of cell proliferation in TMZ-resistant patient-derived human GBM cells at 2 uM incubated for 48 hrs; assay type: functional, cell-based
GBM [31] = test: Induction of mitochondrial ROS production in TMZ-resistant patient-derived human GBM cells by MitoSOX staining based analysis; assay type: functional, cell-based
[32] = Downregulation of CENPM level in TMZ-resistant patient-derived human GBM cells assessed as fold change at 2 uM by GlioVis analysis (reference value: 2.23); assay type: functional
GBM [33] = test: Upregulation of ZYX gene expression in TMZ-resistant patient-derived human GBM cells by KEGG analysis; assay type: functional, cell-based
GBM [34] = test: Effect on homologous recombination in TMZ-resistant patient-derived human GBM cells assessed as fold decrease in RAD21 gene expression at 2 uM (reference value: 5.77); assay type: functional
GBM [35] = test: Upregulation of HSPA8 gene expression in TMZ-resistant patient-derived human GBM cells by KEGG analysis; assay type: functional, cell-based
[36] = Downregulation of CENPF level in TMZ-resistant patient-derived human GBM cells assessed as fold change at 2 uM by GlioVis analysis (reference value: 6.6); assay type: functional
GBM [37] = test: Induction of ROS production in TMZ-resistant patient-derived human GBM cells assessed as decrease in GPX1 level upto 10 uM measured after 48 hrs by Western blot analysis; assay type: functional, cell-based
GBM [38] = test: Upregulation of HSPA4 gene expression in TMZ-resistant patient-derived human GBM cells by KEGG analysis; assay type: functional, cell-based
GBM [39] = test: Induction of ROS production in TMZ-resistant patient-derived human GBM cells assessed as increase in cleaved caspase-3 level upto 5 uM measured for 48 hrs by Western blot analysis; assay type: functional, cell-based

Sequence of Histone-lysine N-methyltransferase EZH2 (Homo sapiens) (Q15910 whole entry, looked up): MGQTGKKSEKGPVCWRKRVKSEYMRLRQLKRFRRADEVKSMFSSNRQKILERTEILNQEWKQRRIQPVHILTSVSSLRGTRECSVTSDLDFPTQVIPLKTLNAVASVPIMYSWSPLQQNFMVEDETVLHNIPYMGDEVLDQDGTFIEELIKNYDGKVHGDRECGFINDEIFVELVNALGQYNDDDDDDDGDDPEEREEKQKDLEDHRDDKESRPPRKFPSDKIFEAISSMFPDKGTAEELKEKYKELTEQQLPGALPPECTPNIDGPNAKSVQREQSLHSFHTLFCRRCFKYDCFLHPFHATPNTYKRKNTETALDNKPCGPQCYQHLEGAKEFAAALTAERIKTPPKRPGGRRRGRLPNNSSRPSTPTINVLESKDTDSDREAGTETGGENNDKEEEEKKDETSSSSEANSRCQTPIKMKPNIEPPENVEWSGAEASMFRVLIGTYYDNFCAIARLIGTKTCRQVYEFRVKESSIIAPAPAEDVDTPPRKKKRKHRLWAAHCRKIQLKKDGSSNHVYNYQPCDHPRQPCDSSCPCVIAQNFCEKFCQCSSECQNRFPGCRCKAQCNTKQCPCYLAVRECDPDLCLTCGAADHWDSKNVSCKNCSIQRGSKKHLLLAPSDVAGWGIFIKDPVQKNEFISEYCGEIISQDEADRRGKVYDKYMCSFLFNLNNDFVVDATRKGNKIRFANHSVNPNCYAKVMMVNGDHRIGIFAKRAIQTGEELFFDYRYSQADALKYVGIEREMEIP

With CCN(c1cc(-c2cccc(N(C)C(=O)c3cc(C(C)C)c(O)cc3O)c2)cc(C(=O)NCc2c(C)cc(C)[nH]c2=O)c1C)C1CCOCC1 the Activity (GBM [1]) was “Active”, the Activity (GBM [2]) was “Active” and the Activity (GBM [3]) was “Active”. For the same molecule, the “fold change (FC)” value (GBM [4]) was 2.33, the Activity (GBM [5]) was “Active” and the Activity (GBM [6]) was “Active”. For the same molecule, the “fold change (FC)” value [7] was 1.38, the Activity (GBM [8]) was “Active” and the Activity (GBM [9]) was “Active”. For the same molecule, the “fold change (FC)” value (GBM [10]) was 0.17, the “fold change (FC)” value [11] was 1.33 and the “fold change (FC)” value [12] was 3.95. The Activity (GBM [13]) was “Active”, the Activity (GBM [14]) was “Active” and the “fold change (FC)” value (GBM [15]) was 0.36. For the same molecule, the Activity (GBM [16]) was “Active”, the “fold change (FC)” value [17] was 1.33 and the Activity (GBM [18]) was “Active”. The Activity (GBM [19]) was “Active”, the inhibition [20] was “Active” and the Activity (GBM [21]) was “Active”. For the same molecule, the Activity (GBM [22]) was “Active”, the “fold change (FC)” value (GBM [23]) was 1.17 and the “fold change (FC)” value [24] was 1.27. The Activity (GBM [25]) was “Active”, the “fold change (FC)” value (GBM [26]) was 0.75 and the Activity (GBM [27]) was “Active”. For the same molecule, the Activity (GBM [28]) was “Active”, the “fold change (FC)” value [29] was 1.53 and the inhibition (GBM [30]) was “Active”. For the same molecule, the Activity (GBM [31]) was “Active”, the “fold change (FC)” value [32] was 0.48 and the Activity (GBM [33]) was “Active”. The “fold change (FC)” value (GBM [34]) was 4.69, the Activity (GBM [35]) was “Active” and the “fold change (FC)” value [36] was 3.46. The Activity (GBM [37]) was “Active”, the Activity (GBM [38]) was “Active” and the Activity (GBM [39]) was “Active”.
